Patent publication US20250296953A1, “3,4-THIAZOLO-STEROIDS AND METHODS OF MAKING AND USING THE SAME” (Arkansas State University - Jonesboro, priority 2018, published 2025)
Like-named read-outs stand apart in the source and are kept apart here.

Experiments:
LOX IMVI = test: Melanoma cytotoxicity assay (resazurin); assay type: cell-based; details: human, 24 h
Procedure, shortened: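 ~4000 cells/well, 24 h attach, 37° C/5% CO2; cpd triplicate, 24 h; resazurin 6 h; fluor 544/590 nm. % viability vs DMSO after media-blank subtraction; IC50 from dilution series, sigmoidal fit.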

SK-MEL-5 = test: Melanoma cytotoxicity assay (resazurin); assay type: cell-based; details: human, 24 h
Procedure, shortened: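 ~4000 cells/well seeded 24 h, then compound added in triplicate for 24 h at 37° C, 5% CO2. Resazurin added for 6 h; fluorescence at 544/590 nm, background-subtracted and normalised to DMSO wells as % viability; IC50 from sigmoidal fit of serial dilutions.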

MALME-3M = test: Melanoma cytotoxicity assay (resazurin); assay type: cell-based; details: human, 24 h
Procedure, shortened: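 MALME-3M cells (~4000/well) seeded 24 h, then exposed to compound in triplicate for 24 h at 37° C, 5% CO2. Resazurin added for 6 h, fluorescence read at 544/590 nm; background-subtracted viability normalised to DMSO wells. IC50 from sigmoidal fit of serial dilutions.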

[1] = test system: 60 different human tumor cell lines; test: cells
gliosarcoma (SF-539) = test: NCI 60 five dose screen

C[C@]12CC[C@H]3[C@@H](CC=C4c5sc(Nc6ccccc6)nc5CC[C@@]43C)[C@@H]1CC[C@@H]2O [IIIa.10, (1S,2R,13R,14S,17S,18S)-7-anilino-2,18-dimethyl-8-thia-6-azapentacyclo[11.7.0.02,10.05,9.014,18]icosa-5(9),6,10-trien-17-ol]
LOX-IMVI (% viability) (LOX IMVI): 27% | SK-MEL-5 (% viability) (SK-MEL-5): 14.72% | MALME-3M (% viability) (MALME-3M): 68.28% | GI50 ([1]; 60 cell): 2.37 µM | CC50 ([1]; 60 cell, read-out: LC50): 38.4 µM | GI50 ([1]; 786-0): 1.22 µM | CC50 ([1]; 786-0, read-out: LC50): 8.87 µM | GI50 ([1]; A498): 2.16 µM | CC50 ([1]; A498, read-out: LC50): 20.7 µM | GI50 ([1]; A549): 2.41 µM | CC50 ([1]; A549, read-out: LC50): 46.2 µM | GI50 ([1]; ACHN): 1.71 µM | CC50 ([1]; ACHN, read-out: LC50): 6.19 µM | GI50 ([1]; BT-549): 1.38 µM | CC50 ([1]; BT-549, read-out: LC50): 32.6 µM | GI50 ([1]; CAKI-1): 2.32 µM | CC50 ([1]; CAKI-1, read-out: LC50): 19.2 µM | GI50 ([1]; CCRF-CEM): 1.6 µM | CC50 ([1]; CCRF-CEM, read-out: LC50): > 100 µM | GI50 ([1]; COLO 205): 2.45 µM | CC50 ([1]; COLO 205, read-out: LC50): 50.8 µM | GI50 ([1]; DU-145): 1.7 µM | CC50 ([1]; DU-145, read-out: LC50): 7.68 µM | GI50 ([1]; EKVX): 2.75 µM | CC50 ([1]; EKVX, read-out: LC50): 63.8 µM | GI50 ([1]; HCC 2998): 1.97 µM | CC50 ([1]; HCC 2998, read-out: LC50): 6.42 µM | GI50 ([1]; HCT-15): 1.6 µM | CC50 ([1]; HCT-15, read-out: LC50): 30.6 µM | GI50 ([1]; HCT-116): 1.51 µM | CC50 ([1]; HCT-116, read-out: LC50): 6.01 µM | GI50 ([1]; HL-60): 2.02 µM | CC50 ([1]; HL-60, read-out: LC50): > 100 µM | GI50 ([1]; HOP-62): 2.47 µM | CC50 ([1]; HOP-62, read-out: LC50): > 100 µM | GI50 ([1]; HOP-92): 2.84 µM | CC50 ([1]; HOP-92, read-out: LC50): 27.4 µM | GI50 ([1]; HT-29): 2.13 µM | GI50 ([1]; Hs-578T): 2.16 µM | CC50 ([1]; Hs-578T, read-out: LC50): > 100 µM | GI50 ([1]; IGROV-1): 2.78 µM | CC50 ([1]; IGROV-1, read-out: LC50): > 100 µM | GI50 ([1]; K562): 2.45 µM | CC50 ([1]; K562, read-out: LC50): > 100 µM | GI50 ([1]; KM12): 1.68 µM | CC50 ([1]; KM12, read-out: LC50): 5.77 µM | GI50 ([1]; LOX IMVI): 1.33 µM | CC50 ([1]; LOX IMVI, read-out: LC50): 5.78 µM | GI50 ([1]; M14): 1.84 µM | CC50 ([1]; M14, read-out: LC50): 9.9 µM | GI50 ([1]; MCF7): 1.8 µM | CC50 ([1]; MCF7, read-out: LC50): > 100 µM | GI50 ([1]; MDA-MB-231): 1.99 µM | CC50 ([1]; MDA-MB-231, read-out: LC50): 12.8 µM | GI50 ([1]; MDA-MB-435): 2.25 µM | CC50 ([1]; MDA-MB-435, read-out: LC50): 29.7 µM | GI50 ([1]; MDA-MB-468): 1.72 µM | CC50 ([1]; MDA-MB-468, read-out: LC50): 6.66 µM | GI50 ([1]; MOLT-4): 1.87 µM | CC50 ([1]; MOLT-4, read-out: LC50): > 100 µM | GI50 ([1]; Malme-3M): 2.19 µM | CC50 ([1]; Malme-3M, read-out: LC50): 21.9 µM | GI50 ([1]; NCI-H23): 2.03 µM | CC50 ([1]; NCI-H23, read-out: LC50): 23.7 µM | GI50 ([1]; NCI-H226): 2.4 µM | CC50 ([1]; NCI-H226, read-out: LC50): > 100 µM | GI50 ([1]; NCI-H322M): 2.88 µM | CC50 ([1]; NCI-H322M, read-out: LC50): 35.2 µM | GI50 ([1]; NCI-H460): 1.95 µM | CC50 ([1]; NCI-H460, read-out: LC50): 8.37 µM | GI50 ([1]; NCI-H522): 1.9 µM | CC50 ([1]; NCI-H522, read-out: LC50): 14.3 µM | GI50 ([1]; NCI/ADR-RES): 3.39 µM | CC50 ([1]; NCI/ADR-RES, read-out: LC50): > 100 µM | GI50 ([1]; OVCAR-3): 1.28 µM | CC50 ([1]; OVCAR-3, read-out: LC50): 5.37 µM | GI50 ([1]; OVCAR-4): 3.13 µM | CC50 ([1]; OVCAR-4, read-out: LC50): 56.8 µM | GI50 ([1]; OVCAR-5): 2.68 µM | CC50 ([1]; OVCAR-5, read-out: LC50): 34 µM | GI50 ([1]; OVCAR-8): 3.43 µM | CC50 ([1]; OVCAR-8, read-out: LC50): 93.7 µM | GI50 ([1]; RXF 393): 0.798 µM | CC50 ([1]; RXF 393, read-out: LC50): 5.81 µM | GI50 ([1]; SF-268): 1.66 µM | CC50 ([1]; SF-268, read-out: LC50): 6.62 µM | GI50 ([1]; SK-MEL-2): 2.51 µM | CC50 ([1]; SK-MEL-2, read-out: LC50): 22.2 µM | GI50 ([1]; SK-MEL-5): 1.82 µM | CC50 ([1]; SK-MEL-5, read-out: LC50): 6.4 µM | GI50 ([1]; SK-MEL-28): 1.68 µM | CC50 ([1]; SK-MEL-28, read-out: LC50): 9.49 µM | GI50 ([1]; SK-OV-3): 5.16 µM | CC50 ([1]; SK-OV-3, read-out: LC50): 51.2 µM | GI50 ([1]; SN12C): 1.65 µM | CC50 ([1]; SN12C, read-out: LC50): 6.53 µM | GI50 ([1]; SNB-19): 1.86 µM | CC50 ([1]; SNB-19, read-out: LC50): 7.65 µM | GI50 ([1]; SNB-75): 1.49 µM | CC50 ([1]; SNB-75, read-out: LC50): 6.24 µM | GI50 ([1]; SW-620): 2.27 µM | CC50 ([1]; SW-620, read-out: LC50): 23.2 µM | GI50 ([1]; T47D): 2.41 µM | CC50 ([1]; T47D, read-out: LC50): > 100 µM | GI50 ([1]; TK-10): 2.91 µM | CC50 ([1]; TK-10, read-out: LC50): 23 µM | GI50 ([1]; U-251): 1.36 µM | CC50 ([1]; U-251, read-out: LC50): 5.7 µM | GI50 ([1]; UACC-62): 1.83 µM | CC50 ([1]; UACC-62, read-out: LC50): 8.55 µM | GI50 ([1]; UACC-257): 2.54 µM | CC50 ([1]; UACC-257, read-out: LC50): 30.5 µM | GI50 ([1]; UO-31): 1.67 µM | CC50 ([1]; UO-31, read-out: LC50): 5.56 µM | GI50 (gliosarcoma (SF-539); Homo sapiens, SF-539): 1.19 µM | CC50 (gliosarcoma (SF-539); Homo sapiens, SF-539, read-out: LC50): 5.74 µM | TGI (gliosarcoma (SF-539); SF-539 (CNS Cancer), five dose): 2.62E−6
